In brackets after ≈: the same amount, converted by molar mass. Activity calls are given as the source filed them. The calls are words filed in the database; no cut-off is given here.
Assays:
[1] = test system: Mycobacterium tuberculosis; assay: Antitubercular activity against Mycobacterium tuberculosis H37Rv assessed as growth inhibition by BACTEC assay; assay type: functional
ATP synthase = assay: Inhibition of Mycobacterium tuberculosis ATP synthase; assay type: protein-complex assay
[2] = test system: Mycobacterium tuberculosis; assay: Antitubercular activity against Mycobacterium tuberculosis H37Rv assessed as growth inhibition after 4 weeks; assay type: functional; conditions: 672 h
[3] = Cytotoxicity against African green monkey Vero C1008 cells assessed as reduction in cell viability after 24 hrs by MTS assay; assay type: cell-based; conditions: Chlorocebus sabaeus
[4] = Cytotoxicity against Swiss mouse BMDM assessed as reduction in cell viability after 24 hrs by MTS assay
[5] = test system: Mycobacterium tuberculosis; assay: Antitubercular activity against Mycobacterium tuberculosis H37Rv infected in human blood monocyte derived macrophages assessed as reduction in colony forming units at 4 times MIC incubated for 4 days measured after 4 weeks; assay type: functional, organism-based
[6] = test system: Mycobacterium tuberculosis; assay: Antitubercular activity against Mycobacterium tuberculosis H37Rv infected in mouse BMDM assessed as reduction in colony forming units at 4 times MIC incubated for 4 days measured after 4 weeks relative to control; assay type: functional; design: scale not given: the % may be the effect or the level left
[7] = test system: Mycobacterium tuberculosis; assay: Antitubercular activity against Mycobacterium tuberculosis H37Rv infected in Swiss mouse assessed as mean survival time at 100 mg/kg, po for 28 days (reference value: 27.8 days); assay type: functional
[8] = test system: Mycobacterium tuberculosis; assay: Antitubercular activity against Mycobacterium tuberculosis H37Rv infected in Swiss mouse assessed as reduction in colony forming units in lungs at 100 mg/kg, po for 28 days measured after 3 to 4 weeks relative to control; assay type: functional
[9] = test system: Mycobacterium tuberculosis; assay: Antitubercular activity against Mycobacterium tuberculosis H37Rv infected in Swiss mouse assessed as mean survival time at 100 mg/kg, po 6 days/week for 28 days (reference value: 27.8 days); assay type: functional
[10] = test system: Mycobacterium tuberculosis; assay: Antitubercular activity against Mycobacterium tuberculosis H37Rv infected in Swiss mouse assessed as reduction in colony forming units in lungs at 100 mg/kg, po 6 days/week for 28 days measured after 3 to 4 weeks relative to control; assay type: functional
[11] = test system: Mycobacterium tuberculosis; assay: Antitubercular activity against Mycobacterium tuberculosis H37Rv infected in Swiss mouse assessed as mean survival time at 50 mg/kg, po 6 days/week for 28 days (reference value: 27.8 days); assay type: functional
[12] = test system: Mycobacterium tuberculosis; assay: Antitubercular activity against Mycobacterium tuberculosis H37Rv infected in Swiss mouse assessed as reduction in colony forming units in lungs at 50 mg/kg, po 6 days/week for 28 days measured after 3 to 4 weeks relative to control; assay type: functional
[13] = test system: Mycobacterium tuberculosis; assay: Antitubercular activity against Mycobacterium tuberculosis H37Rv infected in Swiss mouse assessed as reduction in colony forming units in lungs at 25 mg/kg, po for 28 days measured after 3 to 4 weeks relative to control; assay type: functional
[14] = test system: Mycobacterium tuberculosis; assay: Antitubercular activity against Mycobacterium tuberculosis H37Rv infected in Swiss mouse assessed as mean survival time at 25 mg/kg, po for 28 days (reference value: 27.8 days); assay type: functional

Row | Structure (SMILES) | MIC90 [1] [µM] | IC50 (ATP synthase) [nM] | MIC [2] [µM] | also measured
1 | COc1nc2ccc(Br)cc2cc1[C@@H](c1ccccc1)[C@@]1(O)c2ccccc2OC[C@@H]1CN(C)C (racemic) | > 50 | – | – | –
2 | C=CCCOc1nc2ccccc2cc1C(c1cc2ccccc2nc1OCCC=C)C(O)(CCN(C)C)c1ccc(Br)cc1 (stereo unspecified) | – | 80 | 1.56 (≈ 1.04 µg/mL) | IC50 [3]: > 100000 nM; IC50 [4]: > 100000 nM
3 | COc1nc2ccccc2cc1C(c1cc2ccccc2nc1OC)C(O)(CCN(C)C)c1ccc2ccccc2c1 (stereo unspecified) | – | 30 | 0.39 (≈ 0.218 µg/mL) | Activity [5]: Active; IC50 [3]: > 100000 nM; IC50 [4]: > 100000 nM; Activity [6]: 91%
4 | COc1nc2ccc(Br)cc2cc1[C@@H](c1ccccc1)[C@@]1(O)c2cc(Cl)ccc2OCC[C@@H]1CN(C)C (racemic) | > 50 | – | – | –
5 | COc1nc2ccccc2cc1C(c1cc2ccccc2nc1OC)C(O)(CCN(C)C)c1cccc2ccccc12 (stereo unspecified) | – | 1 | 0.7 (≈ 0.39 µg/mL) | IC50 [3]: > 100000 nM; IC50 [4]: > 100000 nM
6 | C=CCOc1nc2ccccc2cc1C(c1cc2ccccc2nc1OCC=C)C(O)(CCN(C)C)c1ccc(Br)cc1 (stereo unspecified) | – | 280 | > 50 | –
7 | C=CCOc1nc2ccccc2cc1C(c1cc2ccccc2nc1OCC=C)C(O)(CCN(C)C)c1ccccc1 (stereo unspecified) | – | 40 | > 50 | –
8 | CC[C@@H](CO)NCCN[C@@H](CC)CO [ETHAMBUTOL] | – | – | – | MST [7]: 29 days; fold change (FC) [8]: 26.94
9 | COc1nc2ccccc2cc1C(c1cc2ccccc2nc1OC)C(O)(CCN(C)C)c1ccccc1 (stereo unspecified) | – | 70 | 0.39 (≈ 0.198 µg/mL) | Activity [5]: Active; MST [9]: 25 days; fold change (FC) [10]: 808.22; MST [11]: 29 days; IC50 [3]: > 100000 nM; IC50 [4]: > 100000 nM; fold change (FC) [12]: 118; Activity [6]: 90%
10 | COc1nc2ccc(Br)cc2cc1[C@H](c1ccccc1)[C@@]1(O)c2ccccc2CC[C@@H]1CN(C)C (racemic) | > 50 | – | – | –
11 | CN(C)CCC(O)(c1cccc(Br)c1)C1c2cc3ccccc3nc2OCC/C=C\CCOc2nc3ccccc3cc21 (stereo unspecified) | – | 10 | – | –
12 | COc1nc2ccc(Br)cc2cc1[C@@H](c1ccccc1)[C@@]1(O)c2ccccc2C[C@@H]1CN(C)C (racemic) | 48.3 (≈ 25 µg/mL) | – | – | –
13 | COc1nc2ccc(Br)cc2cc1[C@H](c1ccccc1)[C@@]1(O)c2ccccc2C[C@@H]1CN(C)C (racemic) | 12.1 (≈ 6.26 µg/mL) | – | – | –
14 | CO[C@H]1/C=C/O[C@@]2(C)Oc3c(C)c(O)c4c(O)c(c(/C=N/N5CCN(C)CC5)c(O)c4c3C2=O)NC(=O)/C(C)=C\C=C\[C@H](C)[C@H](O)[C@@H](C)[C@@H](O)[C@@H](C)[C@H](OC(C)=O)[C@@H]1C [RIFAMPIN] | – | – | – | Activity [6]: 98%
15 | COc1nc2ccc(Br)cc2cc1[C@H](c1ccccc1)[C@@]1(O)c2ccc(Br)cc2C[C@@H]1CN(C)C (racemic) | > 50 | – | – | –
16 | COc1nc2ccc(Br)cc2cc1[C@@H](c1ccccc1)[C@@]1(O)c2ccc(Br)cc2C[C@@H]1CN(C)C (racemic) | > 50 | – | – | –
17 | COc1nc2ccc(Br)cc2cc1[C@H](c1ccccc1)[C@@]1(O)c2ccccc2OC[C@@H]1CN(C)C (racemic) | > 50 | – | – | –
18 | COc1nc2ccc(Br)cc2cc1[C@@H](c1ccccc1)[C@@]1(O)c2ccccc2CCC[C@@H]1CN(C)C (racemic) | 45.8 (≈ 25 µg/mL) | – | – | –
19 | COc1nc2ccc(Br)cc2cc1[C@H](c1ccccc1)[C@@]1(O)c2cc(C)ccc2C[C@@H]1CN(C)C (racemic) | 12.5 (≈ 6.64 µg/mL) | – | – | –
20 | COc1nc2ccccc2cc1C(c1cc2ccccc2nc1OC)C(O)(CCN(C)C)c1ccc(Br)cc1 (stereo unspecified) | – | 10 | 0.66 (≈ 0.387 µg/mL) | IC50 [3]: > 100000 nM; IC50 [4]: > 100000 nM
21 | COc1nc2ccc(Br)cc2cc1[C@H](c1ccccc1)[C@@]1(O)c2cc(Cl)ccc2OCC[C@@H]1CN(C)C (racemic) | > 50 | – | – | –
22 | COc1nc2ccccc2cc1C(c1cc2ccccc2nc1OC)C(O)(CCN(C)C)c1cccc(Br)c1 (stereo unspecified) | – | 50 | 1.56 (≈ 0.915 µg/mL) | IC50 [3]: > 100000 nM; IC50 [4]: > 100000 nM
23 | NNC(=O)c1ccncc1 [ISONIAZID] | – | – | – | fold change (FC) [13]: 257.08; MST [14]: 29 days; Activity [6]: 98%
24 | COc1nc2ccc(Br)cc2cc1[C@@H](c1ccccc1)[C@@]1(O)c2cc(Br)ccc2CC[C@@H]1CN(C)C (racemic) | > 50 | – | – | –
25 | COc1nc2ccc(Br)cc2cc1[C@@H](c1ccccc1)[C@@]1(O)c2cc(C)ccc2C[C@@H]1CN(C)C (racemic) | > 50 | – | – | –
26 | C=CCOc1nc2ccccc2cc1C(c1cc2ccccc2nc1OCC=C)C(O)(CCN(C)C)c1cccc(Br)c1 (stereo unspecified) | – | 30 | > 50 | –
27 | COc1nc2ccc(Br)cc2cc1[C@H](c1ccccc1)[C@@]1(O)c2cc(Br)ccc2CC[C@@H]1CN(C)C (racemic) | > 50 | – | – | –
28 | COc1nc2ccc(Br)cc2cc1[C@@H](c1ccccc1)[C@@]1(O)c2ccccc2CC[C@@H]1CN(C)C (racemic) | > 50 | – | – | –
29 | COc1nc2ccc(Br)cc2cc1[C@@H](c1ccccc1)[C@@]1(O)c2ccccc2OCC[C@@H]1CN(C)C (racemic) | 22.8 (≈ 12.5 µg/mL) | – | – | –

From ChEMBL document CHEMBL3751774, “Synthesis and anti-tubercular activity of conformationally-constrained and bisquinoline analogs of TMC207” (Medchemcomm, 2015)
